Assay results reported in PubChem BioAssay AID2060506 (Molecular Pharmacology Branch, DTP, NCI, 2025).

Tested on: 598228-144-R-J1-PDC complex spheroid viability
Experiment: Anticancer human tumor 598228-144-R-J1-PDC patient-derived serous endometrial adenocarcinoma cell line growth inhibition [GQUAD]
Details: for IC50: curve of first compound; for viability, T/C: stronger effect = lower value
In short: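 Viability of tumor cells grown as complex spheroids with endothelial and stromal cells, exposed to drug combinations. Top concentration at or near clinical Cmax (else 10 microM), diluted in half-log increments.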

[1] = second compound 0.0316 µM, first compound 0.0316 µM
[2] = second compound 0.0316 µM, first compound 0.1 µM
[3] = second compound 0.0316 µM, first compound 0.316 µM
[4] = second compound 0.0316 µM, first compound 1 µM
[5] = second compound 0.0316 µM, first compound 3.16 µM
[6] = second compound 0.0316 µM, first compound 10 µM
[7] = second compound 0.1 µM, first compound 0.0316 µM
[8] = second compound 0.1 µM, first compound 0.1 µM
[9] = second compound 0.1 µM, first compound 0.316 µM
[10] = second compound 0.1 µM, first compound 1 µM
[11] = second compound 0.1 µM, first compound 3.16 µM
[12] = second compound 0.1 µM, first compound 10 µM
[13] = second compound 0.316 µM, first compound 0.0316 µM
[14] = second compound 0.316 µM, first compound 0.1 µM
[15] = second compound 0.316 µM, first compound 0.316 µM
[16] = second compound 0.316 µM, first compound 1 µM
[17] = second compound 0.316 µM, first compound 3.16 µM
[18] = second compound 0.316 µM, first compound 10 µM
[19] = second compound 1 µM, first compound 0.0316 µM
[20] = second compound 1 µM, first compound 0.1 µM
[21] = second compound 1 µM, first compound 0.316 µM
[22] = second compound 1 µM, first compound 1 µM
[23] = second compound 1 µM, first compound 3.16 µM
[24] = second compound 1 µM, first compound 10 µM
[25] = second compound 3.16 µM, first compound 0.0316 µM
[26] = second compound 3.16 µM, first compound 0.1 µM
[27] = second compound 3.16 µM, first compound 0.316 µM
[28] = second compound 3.16 µM, first compound 1 µM
[29] = second compound 3.16 µM, first compound 3.16 µM
[30] = second compound 3.16 µM, first compound 10 µM
[31] = second compound 10 µM, first compound 0.0316 µM
[32] = second compound 10 µM, first compound 0.1 µM
[33] = second compound 10 µM, first compound 0.316 µM
[34] = second compound 10 µM, first compound 1 µM
[35] = second compound 10 µM, first compound 3.16 µM
[36] = second compound 10 µM, first compound 10 µM
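Further: spheroids exposed to the agents for one week before reading.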
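Wherever viability, T/C is given: percent of vehicle DMSO control viability so 100% = untreated growth.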

For `CC(C)(O)C1CCC(Nc2ccc3ncc(-c4cccc(C(F)(F)F)c4)n3n2)CC1` (stereo not drawn) + Cc1cnc(CNC(=O)c2c(=O)c3ccc(N4CCCN(C)CC4)nc3n3c2sc2ccccc23)cn1, the IC50 (second compound 0.0316 µM) was 1.39 µM, the IC50 (second compound 0.1 µM) was 0.887 µM and the IC50 (second compound 0.316 µM) was 1.2 µM. The IC50 (second compound 1 µM) was 1.26 µM, the IC50 (second compound 3.16 µM) was 0.398 µM and the IC50 (second compound 10 µM) was under 0.0316 µM. The viability, T/C [1] was 76.5%, the viability, T/C [2] was 93.7% and the viability, T/C [3] was 73.2%. For the same compound, the viability, T/C [4] was 62.9%, the viability, T/C [5] was 16.7% and the viability, T/C [6] was 17.8%. It also gave a viability, T/C [7] of 73.7%, a viability, T/C [8] of 69.2% and a viability, T/C [9] of 70.2%. The viability, T/C [10] was 46.4%, the viability, T/C [11] was 22.9% and the viability, T/C [12] was 10.9%. For the same compound, the viability, T/C [13] was 77%, the viability, T/C [14] was 53.6% and the viability, T/C [15] was 74.7%. The viability, T/C [16] was 56.1%, the viability, T/C [17] was 17.7% and the viability, T/C [18] was 17.6%. It also gave a viability, T/C [19] of 64.2%, a viability, T/C [20] of 45.9% and a viability, T/C [21] of 58.2%. It also gave a viability, T/C [22] of 65.8%, a viability, T/C [23] of 13.6% and a viability, T/C [24] of 18.3%. The viability, T/C [25] was 51.2%, the viability, T/C [26] was 56.8% and the viability, T/C [27] was 55.2%. It also gave a viability, T/C [28] of 32.6%, a viability, T/C [29] of 0.22% and a viability, T/C [30] of 0.19%. The viability, T/C [31] was 25.4%, the viability, T/C [32] was 0.49% and the viability, T/C [33] was 33%. The viability, T/C [34] was 0.33%, the viability, T/C [35] was 0.26% and the viability, T/C [36] was 5.96%.
For `CC(C)n1c(=O)n(C)c2cnc3cc(F)c(-c4ccc(OCCCN5CCCCC5)nc4)cc3c21` + Cc1[nH]c2ccc(F)cc2c1-c1nc2c3cccnc3c3ncccc3c2[nH]1, the IC50 (second compound 0.0316 µM) was over 10 µM, the IC50 (second compound 0.1 µM) was over 10 µM and the IC50 (second compound 0.316 µM) was over 10 µM. For the same compound, the IC50 (second compound 1 µM) was 5.12 µM, the IC50 (second compound 3.16 µM) was under 0.0316 µM and the IC50 (second compound 10 µM) was over 10 µM. It also gave a viability, T/C [1] of 116%, a viability, T/C [2] of 100% and a viability, T/C [3] of 117%. The viability, T/C [4] was 121%, the viability, T/C [5] was 106% and the viability, T/C [6] was 65%. The viability, T/C [7] was 107%, the viability, T/C [8] was 108% and the viability, T/C [9] was 95.4%. The viability, T/C [10] was 94.4%, the viability, T/C [11] was 91.7% and the viability, T/C [12] was 77%. The viability, T/C [13] was 90.8%, the viability, T/C [14] was 97.2% and the viability, T/C [15] was 93.9%. The viability, T/C [16] was 87.4%, the viability, T/C [17] was 101% and the viability, T/C [18] was 62.2%. The viability, T/C [19] was 72.6%, the viability, T/C [20] was 60.6% and the viability, T/C [21] was 59.2%. The viability, T/C [22] was 60.6%, the viability, T/C [23] was 59.2% and the viability, T/C [24] was 39.5%. The viability, T/C [25] was 45.2%, the viability, T/C [26] was 47.4% and the viability, T/C [27] was 40.8%. It also gave a viability, T/C [28] of 39.3%, a viability, T/C [29] of 29.5% and a viability, T/C [30] of 27.3%. The viability, T/C [31] was 66%, the viability, T/C [32] was 57.9% and the viability, T/C [33] was 52.9%. The viability, T/C [34] was 54.1%, the viability, T/C [35] was 55.4% and the viability, T/C [36] was 46.5%.
`COc1cc(C2c3cc4c(cc3C(OC3OC5COC(C)OC5C(O)C3O)C3COC(=O)C23)OCO4)cc(OC)c1O` (stereo not drawn) + CN(C)c1ccc(Nc2c3ccc(NC(=O)CCN4CCCC4)cc3nc3cc(NC(=O)CCN4CCCC4)ccc23)cc1 showed an IC50 (second compound 0.0316 µM) of 8.17 µM, an IC50 (second compound 0.1 µM) of 5.14 µM and an IC50 (second compound 0.316 µM) of 5.39 µM. For the same compound, the IC50 (second compound 1 µM) was 0.898 µM, the IC50 (second compound 3.16 µM) was 5.14 µM and the IC50 (second compound 10 µM) was 0.471 µM. It also gave a viability, T/C [1] of 114%, a viability, T/C [2] of 105% and a viability, T/C [3] of 75.5%. The viability, T/C [4] was 65.5%, the viability, T/C [5] was 71.5% and the viability, T/C [6] was 42.1%. It also gave a viability, T/C [7] of 102%, a viability, T/C [8] of 84.2% and a viability, T/C [9] of 78.6%. The viability, T/C [10] was 61.3%, the viability, T/C [11] was 61.5% and the viability, T/C [12] was 40.3%. For the same compound, the viability, T/C [13] was 103%, the viability, T/C [14] was 95% and the viability, T/C [15] was 70.8%. The viability, T/C [16] was 61.6%, the viability, T/C [17] was 65.4% and the viability, T/C [18] was 39.6%. The viability, T/C [19] was 93.6%, the viability, T/C [20] was 114% and the viability, T/C [21] was 71.3%. The viability, T/C [22] was 55.9%, the viability, T/C [23] was 54.9% and the viability, T/C [24] was 32.5%. The viability, T/C [25] was 95%, the viability, T/C [26] was 75.6% and the viability, T/C [27] was 80%. The viability, T/C [28] was 56.4%, the viability, T/C [29] was 70.3% and the viability, T/C [30] was 35.7%. The viability, T/C [31] was 92.9%, the viability, T/C [32] was 71.8% and the viability, T/C [33] was 53%. The viability, T/C [34] was 40.7%, the viability, T/C [35] was 60.3% and the viability, T/C [36] was 34.9%.
In the case of `COc1ncnc(C2CC2)c1-c1ncc2cnn(Cc3ccc(-c4nc(C(F)(F)F)cn4C(C)C)cc3)c2n1` + CN(C)c1ccc(Nc2c3ccc(NC(=O)CCN4CCCC4)cc3nc3cc(NC(=O)CCN4CCCC4)ccc23)cc1, the IC50 (second compound 0.0316 µM) is reported as over 10 µM, the IC50 (second compound 0.1 µM) is reported as over 10 µM and the IC50 (second compound 0.316 µM) is reported as over 10 µM. The IC50 (second compound 1 µM) was over 10 µM, the IC50 (second compound 3.16 µM) was over 10 µM and the IC50 (second compound 10 µM) was over 10 µM. For the same compound, the viability, T/C [1] was 91.3%, the viability, T/C [2] was 111% and the viability, T/C [3] was 95.9%. The viability, T/C [4] was 92.2%, the viability, T/C [5] was 111% and the viability, T/C [6] was 89.9%. It also gave a viability, T/C [7] of 105%, a viability, T/C [8] of 97.9% and a viability, T/C [9] of 101%. For the same compound, the viability, T/C [10] was 85.5%, the viability, T/C [11] was 102% and the viability, T/C [12] was 110%. For the same compound, the viability, T/C [13] was 112%, the viability, T/C [14] was 115% and the viability, T/C [15] was 99%. For the same compound, the viability, T/C [16] was 88.7%, the viability, T/C [17] was 120% and the viability, T/C [18] was 110%. For the same compound, the viability, T/C [19] was 112%, the viability, T/C [20] was 90.6% and the viability, T/C [21] was 102%. It also gave a viability, T/C [22] of 75.1%, a viability, T/C [23] of 95.2% and a viability, T/C [24] of 90.5%. For the same compound, the viability, T/C [25] was 89.8%, the viability, T/C [26] was 108% and the viability, T/C [27] was 94.3%. The viability, T/C [28] was 105%, the viability, T/C [29] was 90.9% and the viability, T/C [30] was 91.5%. It also gave a viability, T/C [31] of 84%, a viability, T/C [32] of 67.8% and a viability, T/C [33] of 72.2%. The viability, T/C [34] was 77.1%, the viability, T/C [35] was 71.1% and the viability, T/C [36] was 51.5%.
